Measurements reported in patent US20230051589A1, “COMPOUNDS AND COMPOSITIONS FOR TREATING CONDITIONS ASSOCIATED WITH NLRP ACTIVITY” (Novartis AG, priority 2018, published 2023).

The molecules below were run on IL-1β production in PMA-differentiated THP-1 cells (assay: IL-1β production in PMA-differentiated THP-1 cells stimulated with gramicidin (hTHP-1 assay, 2% fetal bovine serum; Procedures 1-3)). Settings: Homo sapiens, THP-1, Table B3; hTHP-1 assay containing 2% fetal bovine serum, gramicidin stimulation, IL-1β readout; read-out: hTHP-1 IC50.
Assay type: cell-based, human
Method in brief: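 IL-1β released into supernatants was read by HTRF after 2 h gramicidin (5 μM) challenge. Before challenge, compounds (3-fold dilutions, top 100 μM, 0.37% DMSO) were given 1 h on THP-1 cells differentiated with PMA (20 ng/ml, 16-18 h) and held in 2% FBS medium.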

| SMILES | IC50 [nM] |
| --- | --- |
| CN(C)Cc1ccc(S(N)(=O)=NC(=O)Nc2c3c(cc4c2CCC4)CCC3)s1 (stereo not shown) [Example 735, 5-((Dimethylamino)methyl)-N-((1,2,3,5,6,7-hexahydro-s-indacen-4-yl)carbamoyl)thiophene-2-sulfonimidamide] | 1000 to 5000 |
| CC(C)(O)c1nc(CO)c(S(N)(=O)=NC(=O)Nc2c3c(cc4c2C(=O)CC4)CCC3)s1 (stereo not shown) [Example 738, 4-(Hydroxymethyl)-2-(2-hydroxypropan-2-yl)-N-((3-oxo-1,2,3,5,6,7-hexahydro-s-indacen-4-yl)carbamoyl)thiazole-5-sulfonimidamide] | 1000 to 5000 |
| C[C@](O)(COCCOCCOCCOCCO)c1ncc(S(N)(=O)=NC(=O)Nc2c3c(cc4c2CCC4)CCC3)s1 (stereo partly drawn) [Example 750, 2-((S)-1,14-dihydroxy-3,6,9,12-tetraoxapentadecan-14-yl)-N′-((1,2,3,5,6,7-hexahydro-s-indacen-4-yl)carbamoyl)thiazole-5-sulfonimidamide] | 5000 to 30000 |
| NS(=O)(=NC(=O)Nc1c2c(cc3c1CCC3)CCC2)c1cnc(C(O)(COCCO)COCCO)s1 (stereo not shown) [Example 751, N′-((1,2,3,5,6,7-hexahydro-s-indacen-4-yl)carbamoyl)-2-(2-hydroxy-1,3-bis(2-hydroxyethoxy)propan-2-yl)thiazole-5-sulfonimidamide] | 1000 to 5000 |
| CN(C)C1CCc2cc(S(N)(=O)=NC(=O)Nc3c4c(cc5c3CCC5)CCC4)sc2C1 (stereo not shown) [Example 752, 6-(Dimethylamino)-N′-((1,2,3,5,6,7-hexahydro-s-indacen-4-yl)carbamoyl)-4,5,6,7-tetrahydrobenzo[b]thiophene-2-sulfonimidamide] | 1000 to 5000 |
| NS(=O)(=NC(=O)Nc1c2c(cc3c1CCC3)CCC2)c1ccc(-c2ccccc2)s1 (stereo not shown) [Example 759, N′-((1,2,3,5,6,7-hexahydro-s-indacen-4-yl)carbamoyl)-5-phenylthiophene-2-sulfonimidamide] | 5000 to 30000 |
| C[C@](O)(COCCOCCOCCOCCOCc1ccccc1)c1ncc(S(N)(=O)=NC(=O)Nc2c3c(cc4c2CCC4)CCC3)s1 (stereo partly drawn) [Example 761, N-((1,2,3,5,6,7-hexahvdro-s-indacen-4-yl)carbamoyl)-2-((S)-16-hydroxy-1-phenyl-2,5,8,11,14-pentaoxaheptadecan-16-yl)thiazole-5-sulfonimidamide] | 200 to 1000 |
| CC(C)(O)c1cccc(S(N)(=O)=NC(=O)Nc2c3c(cc4c2CCC4)CCC3)n1 (stereo not shown) [Example 763, N′-((1,2,3,5,6,7-hexahydro-s-indacen-4-yl)carbamoyl)-6-(2-hydroxypropan-2-yl)pyridine-2-sulfonimidamide] | 1000 to 5000 |
| CN(C)CC(C)(C)c1ccc(S(N)(=O)=NC(=O)Nc2c3c(cc4c2CCC4)CCC3)cc1 (stereo not shown) [Example 764, 4-(1-(Dimethylamino)-2-methylpropan-2-yl)-N′-((1,2,3,5,6,7-hexahydro-s-indacen-4-yl)carbamoyl)benzenesulfonimidamide] | 1000 to 5000 |
| CC(C)c1cnc(S(N)(=O)=NC(=O)Nc2c3c(cc4c2CCC4)CCC3)c(F)c1 (stereo not shown) [Example 765, 3-Fluoro-N'-((1,2,3,5,6,7-hexahydro-s-indacen-4-yl)carbamoyl)-5-isopropylpyridine-2-sulfonimidamide] | 1000 to 5000 |

More lines, now with the values ahead:

| IC50 [nM] | SMILES |
| --- | --- |
| 200 to 1000 | NS(=O)(=NC(=O)Nc1c2c(cc3c1CCC3)CCC2)c1ccc([C@@H]2CCCN2)s1 (stereo partly drawn) [Example 730, N′-((1,2,3,5,6,7-hexahydro-s-indacen-4-yl)carbamoyl)-5-((S)-pyrrolidin-2-yl)thiophene-2-sulfonimidamide] |
| 200 to 1000 | NS(=O)(=NC(=O)Nc1c2c(cc3c1CCC3)CCC2)c1ccc([C@H]2CCCN2)s1 (stereo partly drawn) [Example 731, N′-((1,2,3,5,6,7-hexahydro-s-indacen-4-yl)carbamoyl)-5-((R)-pyrrolidin-2-yl)thiophene-2-sulfonimidamide] |
| 8 to 40 | NS(=O)(=NC(=O)Nc1c2c(cc3c1CC3)CCC2)c1sc2c(c1F)CNCC2 (stereo not shown) [Example 732, 3-Fluoro-N′-((2,4,5,6-tetrahydro-1H-cyclobuta[f]inden-3-yl)carbamoyl)-4,5,6,7-tetrahydrothieno[3,2-c]pyridine-2-sulfonimidamide] |
| 40 to 200 | NS(=O)(=NC(=O)Nc1c2c(cc3c1CCC3)CCC2)c1sc(C(O)(CO)CO)nc1CO (stereo not shown) [Example 733, N′-((1,2,3,5,6,7-hexahydro-s-indacen-4-yl)carbamoyl)-4-(hydroxymethyl)-2-(1,2,3-trihydroxypropan-2-yl)thiazole-5-sulfonimidamide] |
| 200 to 1000 | CCn1ccc(S(N)(=O)=NC(=O)Nc2c3c(cc4c2CCC4)CCC3)n1 (stereo not shown) [Example 736, 1-Ethyl-N′-((1,2,3,5,6,7-hexahydro-s-indacen-4-yl)carbamoyl)-1H-pyrazole-3-sulfonimidamide] |
| 200 to 1000 | CCn1ccc(S(N)(=O)=NC(=O)Nc2c3c(cc4c2CC4)CCC3)n1 (stereo not shown) [Example 737, 1-Ethyl-N′-((2,4,5,6-tetrahydro-1H-cyclobuta[f]inden-3-yl)carbamoyl)-1H-pyrazole-3-sulfonimidamide] |
| 200 to 1000 | CC(C)n1nc(S(N)(=O)=NC(=O)Nc2c3c(cc4c2C(=O)CC4)CCC3)cc1C(C)(C)O (stereo not shown) [Example 740, 5-(2-Hydroxypropan-2-yl)-1-isopropyl-N′-((3-oxo-1,2,3,5,6,7-hexahydro-s-indacen-4-yl)carbamoyl)-1H-pyrazole-3-sulfonimidamide] |
| 8 to 40 | C[C@](O)(CO)c1ncc(S(N)(=O)=NC(=O)Nc2c3c(cc4c2CC4)CCC3)s1 (stereo partly drawn) [Example 741, 2-((S)-1,2-dihydroxypropan-2-yl)-N′-((2,4,5,6-tetrahydro-1H-cyclobuta[f]inden-3-yl)carbamoyl)thiazole-5-sulfonimidamide] |
| 8 to 40 | C[C@@](O)(CO)c1ncc(S(N)(=O)=NC(=O)Nc2c3c(cc4c2CC4)CCC3)s1 (stereo partly drawn) [Example 742, 2-((R)-1,2-dihydroxypropan-2-yl)-N′-((2,4,5,6-tetrahydro-1H-cyclobuta[f]inden-3-yl)carbamoyl)thiazole-5-sulfonimidamide] |
| 200 to 1000 | C[C@@](O)(CO)c1ncc(S(N)(=O)=NC(=O)Nc2c3c(cc4c2C(=O)CC4)CCC3)s1 (stereo partly drawn) [Example 743, 2-((R)-1,2-dihydroxypropan-2-yl)-N′-((3-oxo-1,2,3,5,6,7-hexahydro-s-indacen-4-yl)carbamoyl)thiazole-5-sulfonimidamide] |
| 40 to 200 | C[C@](O)(CO)c1ncc(S(N)(=O)=NC(=O)Nc2c3c(cc4c2C(=O)CC4)CCC3)s1 (stereo partly drawn) [Example 744, 2-((S)-1,2-dihydroxypropan-2-yl)-N′-((3-oxo-1,2,3,5,6,7-hexahydro-s-indacen-4-yl)carbamoyl)thiazole-5-sulfonimidamide] |
| 40 to 200 | C[C@](O)(COCCO)c1ccc([S@@](N)(=O)=NC(=O)Nc2c3c(cc4c2CCC4)CCC3)s1 [Example 748, (S)-N′-((1,2,3,5,6,7-hexahydro-s-indacen-4-yl)carbamoyl)-5-((S)-2-hydroxy-1-(2-hydroxyethoxy)propan-2-yl)thiophene-2-sulfonimidamide] |
| 200 to 1000 | C[C@](O)(COCCO)c1ccc([S@](N)(=O)=NC(=O)Nc2c3c(cc4c2CCC4)CCC3)s1 [Example 749, (R)-N′-((1,2,3,5,6,7-hexahydro-s-indacen-4-yl)carbamoyl)-5-((S)-2-hydroxy-1-(2-hydroxyethoxy)propan-2-yl)thiophene-2-sulfonimidamide] |
| 40 to 200 | CC(O)(CO)c1nc(CO)c(S(N)(=O)=NC(=O)Nc2c3c(cc4c2CCC4)CCC3)s1 (stereo not shown) [Example 753, 2-(1,2-Dihydroxypropan-2-yl)-N′-((1,2,3,5,6,7-hexahydro-s-indacen-4-yl)carbamoyl)-4-(hydroxymethyl)thiazole-5-sulfonimidamide] |
| 40 to 200 | CC(CO)(CO)c1ncc(S(N)(=O)=NC(=O)Nc2c3c(cc4c2CCC4)CCC3)s1 (stereo not shown) [Example 756, 2-(1,3-Dihydroxy-2-methylpropan-2-yl)-N′-((1,2,3,5,6,7-hexahydro-s-indacen-4-yl)carbamoyl)thiazole-5-sulfonimidamide] |
| 40 to 200 | CC(O)(CO)c1nc(CO)c(S(N)(=O)=NC(=O)Nc2c3c(cc4c2CC4)CCC3)s1 (stereo not shown) [Example 757, 2-(1,2-Dihydroxypropan-2-yl)-4-(hydroxymethyl)-N′-((2,4,5,6-tetrahydro-1H-cyclobuta[f]inden-3-yl)carbamoyl)thiazole-5-sulfonimidamide] |
| 200 to 1000 | NS(=O)(=NC(=O)Nc1c2c(cc3c1CCC3)CCC2)c1cc2c(s1)CCOC2 (stereo not shown) [Example 758, N′-((1,2,3,5,6,7-hexahydro-s-indacen-4-yl)carbamoyl)-6,7-dihydro-4H-thieno[3,2-c]pyran-2-sulfonimidamide] |
| 200 to 1000 | CC(C)(O)c1sc(S(N)(=O)=NC(=O)Nc2c3c(cc4c2CCC4)CCC3)cc1-c1ccccc1 (stereo not shown) [Example 760, N′-((1,2,3,5,6,7-hexahydro-s-indacen-4-yl)carbamoyl)-5-(2-hydroxypropan-2-yl)-4-phenylthiophene-2-sulfonimidamide] |

Same assay, conditions: Table B3; hTHP-1 assay containing 2% fetal bovine serum, gramicidin stimulation, IL-1β readout; read-out: hTHP-1 IC50

| IC50 [nM] | SMILES |
| --- | --- |
| 1000 to 5000 | CC1=CC(C)=[N+]2C1=Cc1ccc(CCC(=O)N(C)Cc3ccc([S@@](=N)(=O)NC(=O)Nc4c5c(cc6c4CCC6)CCC5)cc3)n1[B-]2(F)F [Example 745, (S)-3-(5,5-difluoro-7,9-dimethyl-5H-5λ4,6λ4-dipyrrolo[1,2-c:2′,1′-f][1,3,2]diazaborinin-3-yl)-N-(4-(N′-((1,2,3,5,6,7-hexahydro-s-indacen-4-yl)carbamoyl)sulfamidimidoyl)benzyl)-N-methylpropanamide] |
| 40 to 200 | C[C@@](O)(CO)c1nc(CO)c(S(N)(=O)=NC(=O)Nc2c3c(cc4c2CCC4)CCC3)s1 (stereo partly drawn) [Example 754, 2-((R)-1,2-dihydroxypropan-2-yl)-N′-((1,2,3,5,6,7-hexahydro-s-indacen-4-yl)carbamoyl)-4-(hydroxymethyl)thiazole-5-sulfommidamide] |
| 1000 to 5000 | CN1CCCC(c2ccc(S(N)(=O)=NC(=O)Nc3c4c(cc5c3CC5)CCC4)c(F)c2)C1 (stereo not shown) [Example 766, 2-Fluoro-4-(1-methylpiperidin-3-yl)-N′-((2,4,5,6-tetrahydro-1H-cyclobuta[f]inden-3-yl)carbamoyl)benzenesulfonimidamide] |
